Results reported in US20260199482A1, “BILE ACID-METRONIDAZOLE CONJUGATE AND USE THEREOF” (SOUTH CHINA UNIVERSITY OF TECHNOLOGY, priority 2022, published 2026).
Values after ≈ are worked out from the molar mass of the structure shown. Read-outs that look alike come from different tables or passages of the source.

Legend:
[1] = tested on: H. pylori Sydney strain SS1; test: MIC determination using broth microdilution method, Helicobacter pylori; type: cell-based
Procedure: (§1) • 1) A frozen solution stored at −80° C. was taken out, and thawed at room temperature; 100 μL of bacterial solution was taken with a pipette, coated onto a Columbia blood agar plate (finished-product medium), put invertedly in a […] culture box, placed in a micro-aerobic gas production bag to achieve a micro-aerobic environment, and cultured at 37° C. for 2-3 days. • 2) A sterile inoculation ring was used to pick Helicobacter pylori single colonies (transparent water droplets) grown on the Colombian blood agar medium and inoculated in the above liquid medium; and cultured at 37° C. in a micro-aerobic environment for 3 days. • 3) A required concentration (absorbance) for the experiment was reached after culture, and the bacterial solution was taken for subsequent experiments.
(§2) The drug concentration at which bacteria ceased to grow or grew at the most significant reduction level was referred to as the MIC value.

H. pylori ATCC 26695 = test: as above; type: cell-based
Procedure: as §1, §2

H. pylori ATCC 43504 = test: as above; type: cell-based; conditions: for MIC: Helicobacter pylori, ATCC43504; for inhibitory activity against drug-resistant bacteria, in words: metronidazole-resistant H. pylori ATCC 43504, versus metronidazole
Procedure: as §1, §2

H. pylori NCTC 11637 = test: as above; type: cell-based; conditions: for MIC: Helicobacter pylori, NCTC11637; for inhibitory activity against drug-resistant bacteria, in words: metronidazole-resistant H. pylori NCTC 11637, versus metronidazole
Procedure: as §1, §2

[2] = tested on: Bacteroides fragilis ATCC 25285; test: MIC determination using broth microdilution method, anaerobic bacteria; type: cell-based
Procedure: (§3) The culture process of the strain was operated in the anaerobic glove box. After the operation was completed, the strain was well sealed with an anaerobic bag or an anaerobic box, taken out and then cultured in the constant-temperature incubator.

[3] = tested on: Clostridioides difficile ATCC 43255; test: as above; type: cell-based; conditions: for MIC: ATCC43255, Clostridioides difficile ATCC 43255, broth microdilution, anaerobic, 37° C., 48 h; for inhibitory effect on Clostridioides difficile (ATCC 43255), in words: comment on Table 1
Procedure: 0.10 g of sterile cycloserine and 3.20 mg of sterile cefoxitin (filtered by a filter membrane and sterilized) were added to every 200 mL, mixed well, and poured into a sterile petri dish for later use.
S3, culture of Clostridioides difficile strain: 1) the strain stored at −80° C. was resuscitated in an anaerobic glove box with a cycloserine-cefoxitin-fructose agar medium plate, and statically cultured at 37° C. in a constant-temperature incubator for 48 h; • 2) single colonies were picked, and statically cultured in the brain heart infusion broth medium overnight at 37° C. in the constant-temperature incubator; and • 3) the bacterial solution that was statically cultured overnight was transferred into the anaerobic glove box with the brain heart infusion broth medium at a ratio of 1:100, and cultured for 3-4 h until the OD600 was between 0.6 and 0.8; and during this process, 5 g/L of yeast extract solution was added to increase a strain concentration.
as §3

[4] = tested on: Porphyromonas gingivalis ATCC 33277; test: as above; type: cell-based
Procedure: S5, Culture of Porphyromonas gingivalis strain: • the strain stored at −80° C. was resuscitated in the anaerobic glove box with a Colombian blood agar plate, and statically cultured at 37° C. in the constant-temperature incubator for 5-7 days.
as §3

[5] = tested on: Clostridioides difficile infection (spores, 027 Type); test: Clostridioides difficile infection (CDI) mouse model; type: in vivo, C57BL/6 mice; conditions: for number of surviving mice: 10 animals per group
Text: • 1) Experimental animals: C57BL/6, 4-6 weeks old, female.
In order to evaluate the efficacy of the compounds of the present application on Clostridioides difficile infection, an animal model of Clostridioides difficile infection was established, as shown in FIG. 1. […] On Day 0, the mice were administrated with 10^5 CFU/mL of spores by gavage; and on Days 1 and 2, the mice were administrated with 10^6 CFU/mL of spores by gavage. Starting from Day 3, the mice were given 7 days of drug treatment, and all mice were euthanized at the end of the experiment, except for the death of mice during the treatment.
Two of the conjugates, SCUT1-2 and SCUT1-6, with the optional in-vitro inhibitory activities were selected. […] The therapeutic effect of the conjugate of the present application in the treatment of Clostridioides difficile infection was evaluated.

[6] = H. pylori Sydney strain SS1, read-out: MIC
[7] = ATCC26695, H. pylori ATCC 26695(S), metronidazole-susceptible strain, read-out: MIC
[8] = H. pylori ATCC 43504(R), metronidazole-resistant strain, read-out: MIC
[9] = H. pylori NCTC 11637(R), metronidazole-resistant strain, read-out: MIC
[10] = ATCC25285, Bacteroides fragilis ATCC 25285, broth microdilution, anaerobic, 37° C., 48 h, read-out: MIC
[11] = ATCC33277, Porphyromonas gingivalis ATCC 33277, broth microdilution, anaerobic, 37° C., 48 h, read-out: MIC
[12] = Day 3 (before the administration), 50 mg/kg groups

Structure (SMILES)	MIC [1, 6] [µg/mL]	MIC (H. pylori ATCC 26695; [7]) [µg/mL]	MIC (H. pylori ATCC 43504; [8]) [µg/mL]	MIC (H. pylori NCTC 11637; [9]) [µg/mL]	MIC [2, 10] [µg/mL]	MIC [3] [µg/mL]	MIC [4, 11] [µg/mL]	number of mice with diarrhea [5, 12]	number of surviving mice [5, 12]	number of mice with diarrhea ([5]; Day 4, 50 mg/kg)	number of surviving mice ([5]; Day 4, 50 mg/kg)	number of mice with diarrhea ([5]; Day 5, 50 mg/kg)	number of surviving mice ([5]; Day 5, 50 mg/kg)	number of mice with diarrhea ([5]; Day 6, 50 mg/kg)	number of surviving mice ([5]; Day 6, 50 mg/kg)	number of mice with diarrhea ([5]; Day 7, 50 mg/kg)	number of surviving mice ([5]; Day 7, 50 mg/kg)	number of mice with diarrhea ([5]; Day 8, 50 mg/kg)	number of surviving mice ([5]; Day 8, 50 mg/kg)	number of mice with diarrhea ([5]; Day 9, 50 mg/kg)	other results
Cc1ncc([N+](=O)[O-])n1CCOC(=O)CC[C@@H](C)[C@H]1CC[C@H]2[C@@H]3C(=O)C[C@@H]4C[C@H](O)CC[C@]4(C)[C@H]3C[C@H](O)[C@]12C [SCUT1-8]	8 (≈ 14.3 µM)	8 (≈ 14.3 µM)	16 (≈ 28.6 µM)	64 (≈ 114 µM)	1 (≈ 1.79 µM)	1 (≈ 1.79 µM)	1 (≈ 1.79 µM)														
Cc1ncc([N+](=O)[O-])n1CCOC(=O)CC[C@@H](C)[C@H]1CC[C@H]2[C@@H]3C[C@H](O)[C@@H]4C[C@H](O)CC[C@]4(C)[C@H]3CC[C@]12C [SCUT1-5]	16 (≈ 29.3 µM)	8 (≈ 14.7 µM)	4 (≈ 7.33 µM)	32 (≈ 58.6 µM)	2 (≈ 3.66 µM)	0.25 (≈ 0.458 µM)	2 (≈ 3.66 µM)														
C[C@H](CCC(=O)O)[C@H]1CC[C@H]2[C@@H]3[C@@H](O)C[C@@H]4C[C@H](O)CC[C@]4(C)[C@H]3CC[C@]12C [UDCA, ursodeoxycholic acid, reference compound]	> 32	> 32	> 128	> 128	> 32	16 (≈ 40.8 µM)	> 32	9 number of mice	10 number of mice	9 number of mice	10 number of mice	7 number of mice	10 number of mice	6 number of mice	10 number of mice	4 number of mice	10 number of mice	5 number of mice	10 number of mice	5 number of mice	number of surviving mice ([5]; Day 9, 50 mg/kg): 10 number of mice
Cc1ncc([N+](=O)[O-])n1CCOC(=O)CC[C@@H](C)[C@H]1CC[C@H]2[C@@H]3[C@@H](O)C[C@@H]4C[C@H](O)CC[C@]4(C)[C@H]3CC[C@]12C [SCUT1-2]	8 (≈ 14.7 µM)	4 (≈ 7.33 µM)	8 (≈ 14.7 µM)	16 (≈ 29.3 µM)	1 (≈ 1.83 µM)	0.12 (≈ 0.22 µM)	0.25 (≈ 0.458 µM)	10 (10) number of mice	10 (10) number of mice	7 number of mice	10 number of mice	4 number of mice	10 number of mice	2 number of mice	10 number of mice	1 number of mice	10 number of mice	1 number of mice	10 number of mice	1 number of mice	inhibitory effect on Clostridioides difficile (ATCC 43255), in words [3]: particularly prominent; death of mice during the treatment ([5]; 50 mg/kg, 7 days of drug treatment): no mice died; therapeutic effect, in words ([5]; 50 mg/kg, compared with Metronidazole, UDCA and MIX groups): a good therapeutic effect; number of surviving mice ([5]; Day 9, 50 mg/kg): 10 number of mice; diarrhea rate ([5]; at the endpoint of treatment, 50 mg/kg, Model group 100%): 10%
Cc1ncc([N+](=O)[O-])n1CCOC(=O)CC[C@@H](C)[C@H]1CC[C@H]2[C@@H]3[C@H](O)[C@H](O)[C@@H]4C[C@H](O)CC[C@]4(C)[C@H]3CC[C@]12C [SCUT1-6]	16 (≈ 28.5 µM)	4 (≈ 7.12 µM)	8 (≈ 14.2 µM)	8 (≈ 14.2 µM)	2 (≈ 3.56 µM)	0.06 (≈ 0.107 µM)	0.25 (≈ 0.445 µM)	8 number of mice	10 number of mice	10 (10) number of mice	10 (10) number of mice	8 number of mice	10 number of mice	7 number of mice	10 number of mice	5 number of mice	10 number of mice	6 number of mice	10 number of mice	5 number of mice	promotion of inhibitory activity against Clostridioides difficile relative to metronidazole ([3]; at the same dosage, versus metronidazole): more than 50 times; inhibitory effect on Clostridioides difficile (ATCC 43255), in words [3]: particularly prominent; number of surviving mice ([5]; Day 9, 50 mg/kg): 10 number of mice; changes in mouse body weights ([5]; during drug treatment from Day 3, 50 mg/kg): continued to decrease until the third day of drug treatment (Day 5)
C[C@H](CCC(=O)O)[C@H]1CC[C@H]2[C@@H]3[C@H](O)[C@H](O)[C@@H]4C[C@H](O)CC[C@]4(C)[C@H]3CC[C@]12C [HCA, hyocholic acid, reference compound]					> 32	32 (≈ 78.3 µM)	> 32														
Cc1ncc([N+](=O)[O-])n1CCOC(=O)CC[C@@H](C)[C@H]1CC[C@H]2[C@@H]3[C@H](O)C[C@@H]4C[C@H](O)CC[C@]4(C)[C@H]3CC[C@]12C [SCUT1-3]	8 (≈ 14.7 µM)	4 (≈ 7.33 µM)	4 (≈ 7.33 µM)	8 (≈ 14.7 µM)	4 (≈ 7.33 µM)	0.12 (≈ 0.22 µM)	0.5 (≈ 0.916 µM)														inhibitory activity against drug-resistant bacteria, in words (H. pylori ATCC 43504): significantly promoted; inhibitory activity against drug-resistant bacteria, in words (H. pylori NCTC 11637): significantly promoted; inhibitory effect on Clostridioides difficile (ATCC 43255), in words [3]: particularly prominent
Cc1ncc([N+](=O)[O-])n1CCOC(=O)CC[C@@H](C)[C@H]1CC[C@H]2[C@@H]3[C@H](O)C[C@H]4C[C@H](O)CC[C@]4(C)[C@H]3CC[C@]12C [SCUT1-4]	4 (≈ 7.33 µM)	4 (≈ 7.33 µM)	4 (≈ 7.33 µM)	4 (≈ 7.33 µM)	2 (≈ 3.66 µM)	2 (≈ 3.66 µM)	0.5 (≈ 0.916 µM)														inhibitory activity against drug-resistant bacteria, in words (H. pylori ATCC 43504): significantly promoted; inhibitory activity against drug-resistant bacteria, in words (H. pylori NCTC 11637): significantly promoted
C[C@H](CCC(=O)O)[C@H]1CC[C@H]2[C@@H]3[C@H](O)C[C@@H]4C[C@H](O)CC[C@]4(C)[C@H]3CC[C@]12C [CDCA, chenodeoxycholic acid, reference compound]					> 32	8 (≈ 20.4 µM)	> 32														
Cc1ncc([N+](=O)[O-])n1CCOC(=O)CC[C@@H](C)[C@H]1CC[C@H]2[C@@H]3CC[C@@H]4C[C@H](O)CC[C@]4(C)[C@H]3CC[C@]12C [SCUT1-1]						0.5 (≈ 0.944 µM)															MIC [1]: 8 µg/mL (≈ 15.1 µM); MIC (H. pylori ATCC 26695; ATCC26695): 8 µg/mL (≈ 15.1 µM); MIC (H. pylori ATCC 43504): > 128 µg/mL; MIC (H. pylori NCTC 11637): 16 µg/mL (≈ 30.2 µM); MIC ([2]; Bacteroides fragilis, ATCC25285, 48 h): 1 µg/mL (≈ 1.89 µM); MIC ([4]; Porphyromonas gingivalis, ATCC33277, 48 h): 2 µg/mL (≈ 3.78 µM)
